Results published in patent publication US20240156959A1, “COMBINATION THERAPY FOR THE TREATMENT OF CANCER COMPRISING AN ANTl-EGFR ANTIBODY AND AN AXL-INHIBITOR” (Yeda Research and Development Co. Ltd., priority 2021, published 2024).

Assays:
PC9 tumors = assay: Whole exome sequencing, untreated vs TKI-treated relapsing tumors; type: in vivo, mice
Description: (§1) Whole exome sequencing: Genomic DNA was isolated using PureLink™ Genomic DNA Mini Kit (Cat# K182002). The qualtiy of the DNA was checked by agarose gel ecltrophoresis and Qubit dsDNA HS Assay kit (Thermo Fisher Scientific). Exome sequencing libraries were prepared according to the manufacturer's instructions (Twist Human core exome kit+RefSeq Panel). Input gDNA (50 ng) from each sample was processed for enzymatic fragmentation, subsequent end repair, and dA-tailing to generate dA-tailed DNA fragments. Twist Universal Adapters were ligated to the dA-tailed DNA fragments, and purified to generate gDNA libraries ready for index introduction through amplification. A gDNA library adapted with Twist CDI primers was amplified and purified. The quality of the amplified library was confirmed using capillary electrophoresis (Bioanalyzer, Agilent). Prior to hybridization, the volume of each library was adjusted using the respective concentration of each Amplified Indexed Library. Ten libraries were multiplexed by 150 ng to give a total mass of 1500 ng. The pre-hybridization solution containing library, probes, RefSeq Panel and blockers was dried using a SpeedVac system and low heat. 0.020 ml of the fast hybridization mix was added to the dried pre-hybridization solution, and then 0.030 ml hybridization enhancer was added on top of the pre-hybridization solution. The mixture was incubated for 5 min at 95° C. and later heated for 2 hours at 60° C. in a thermal cycler (Fast Hybridization). Streptavidin Binding Beads (100 μl) were washed three times with 0.2 ml Fast Binding Buffer and re-suspended in 0.2 ml binding buffer. The hybridization mixture was added to the bead suspension and incubated for 30 min at RT with mixing. The beads were washed once, preheated in Fast Wash Buffer 1 for 5 min at 70° C., and three times with 0.2 ml of Wash Buffer2 for 5min at 48° C. DNA was eluted with 0.045 ml nuclease-free water (Streptavidin Binding Bead slurry). The captured library was amplified using PCR to enrich for fragments. The quality of the amplified libraries was verified by means of automated electrophoresis (Tapestation, Agilent). […]
(§2) Alignment and variant calling: Sequence QC was done through FastqQC 0.11.5 (Andrews 2015). Reads were mapped to human reference genome sequence (hg19; NCBI GRCh37) using bwa 0.7.12 (H. Li and Durbin 2009). […]
(§3) Animal experiments: All animal studies were approved by our institutional board and they were performed in accordance with the guidelines of the Institutional Animal Care and Use Committee (IACUC). […] Tumor volume was estimated using vernier caliper measurements of the longest axis, a/mm, and the perpendicular axis, b/mm Volumes were calculated in accordance with the equation V=(4 π/3)×(a/2)^2×(b/2). […]

[1] = tested on: AXL-overexpressing tumors; assay: as above; type: in vivo, mice
Description: as §1, §2, §3

RAD18 = RAD18 immunoprecipitation and immunoblotting in DTPs; type: cell-based; conditions: erlotinib 1 μM, 2-9 days
Description: FIGS. 3A-G. AXL and RAD18 are functionally linked. (B) PC9 cells were treated with erlotinib (1 μM), or DMSO and RNA was subjected to real time PCR. (C) Transcriptomic data corresponding to 506 patients with lung adenocarcinoma were used to generate an expression correlogram of 19 DNA damage response genes. Pearson correlation coefficients are indicated in each square (see scale code). (D) Parental and RAD18 knockout cells were treated for 9 days with a TKI. Fractions of surviving DTPs are shown. (E) Naïve and RAD18-knockout cells were probed using anti-AXL or anti-RAD18 antibodies. Thereafter, the cells were processed for proximity ligation analysis (red signals). Representative images and PLA quantification are shown. Bar, 20 μm. (F) Cells were treated for 2-9 days with erlotinib (1 μM) or H2O2 (40 μM). Extracts were subjected to immunoprecipitation with an anti-RAD18 or control antibody and immunoprecipitates were immunoblotted. (G) Naïve and AXL-overexpressing cells, along with PC9ER cells, were treated with erlotinib (1 μM). Genomic DNA was isolated after 9 days and the T790M point mutation was determined using digital PCR. Shown are fraction of T790M in cellular DNA. Data are means ±SEM (4 experiments). […]

AXL = assay: Re-analysis of AXL mRNA levels in a published patient dataset; type: in vivo; conditions: 23 patients, specimens prior to and after treatment, p<0.05
Text: FIGS. 1A-G: Upregulation of AXL is essential for resistance and tolerance. (A) PC9 cells (2×10^6) were subcutaneously implanted in nude mice. […] Tumor volumes are presented (average ±SEM). (B) 3-4 mice from each group presented in A were euthanized when tumors reached 1,500 mm 3 Tumors were extracted and subjected to immunoblotting. Tubulin (TUB) served as the loading control. (C and D) AXL-overexpressing (C) and AXL-knockout PC9 cells (2×10^6, D), along with naïve cells, were subcutaneously implanted in mice. When tumors became palpable, mice were randomized and treated as in A. (E) Data were re-analyzed for AXL mRNA levels in 23 patients with EGFR+NSCLC. Specimens (total=53) were collected at several time points, prior to and after treatment with osimertinib. (F and G) AXL-overexpressing (OX; F) or AXL-knockout PC9 cells (KO; G), along with naïve cells, were untreated or treated with TKIs (1 or 3 μM). Drugs and media were refreshed on day 3 and 6. On day 9, remaining cells (DTPs) were fixed, stained and quantified. Averages±S.D. (triplicates) are shown.

With `C#Cc1cccc(Nc2ncnc3cc(OCCOC)c(OCCOC)cc23)c1` [erlotinib] the “increase in base alterations in relapsing tumors” value (“increase in base alterations” below) (PC9 tumors) was 2.31 fold, the “increase in base alterations” value [1] was 2.42 fold and the “ubiquitination of PCNA” value (RAD18) was “increased ubiquitination of PCNA”. The “ubiquitination of RAD18” value (RAD18) was “reduced ubiquitination of RAD18”.

`C=CC(=O)Nc1cc(Nc2nccc(-c3cn(C)c4ccccc34)n2)c(OC)cc1N(C)CCN(C)C` [osimertinib] was tested, and the “AXL mRNA levels in EGFR tumors of patients” value (AXL) was “AXL up-regulation”, the “increase in base alterations” value (PC9 tumors) was 2.37 fold and the “increase in base alterations” value [1] was 2.52 fold.
